# Patent US20060128792A1, “Deguelin as a chemopreventive agent for lung cancer” (priority 2002, published 2006)
# Where “and” joins values, the source holds several entries; their conditions need not be identical. Equal values may be shown once.
# Legend:
# H226Br = test: MTT assay, growth inhibition by deguelin or deguelin derivatives; assay type: cell-based; conditions: 3 days
# [1] = test system: cell line not named (Table 1); test: MTT assay, growth inhibition by deguelin; assay type: cell-based; conditions: 3 days
# H661 = test: MTT assay, growth inhibition by deguelin or deguelin derivatives; assay type: cell-based; conditions: 3 days
# HUVEC cells = test: HUVEC proliferation, MTT assay; assay type: cell-based; conditions: 0.1, 1 and 10 μM, 3 days
# Description: FIGS. 9A-9D.—Anti-angiogenic activity of deguelin. (FIG. 9A) CAMs after incubation with Thermanox coverslips containing vehicle (Con), deguelin ([…]) or RA (1 μg) as a positive control or for 48 h (circle indicate the placement of coverslip). (FIG. 9B) The anti-angiogenic effect of deguelin was evaluated by calculating the percentage of positive eggs. □ empty coverslip as control; ▪ RA 1 μg/egg; ▪ deguelin 1 or 5 nmole/egg. Each value represents the mean±SE. (FIG. 9C) Appearance of matrigel from mice. The effects of deguelin on bFGF-induced angiogenesis in vivo was analyzed by matrigel plug assay using nude mouse. Matrigel alone (Con)—negative control, 100 ng/ml bFGF and 72 units/ml heparin in a vehicle of 0.1% BSA/PBS (bFGF)—positive control, 5 niole deguelin alone, and 5 nmole deguelin plus bFGF were included. (FIG. 9D) Proliferation of HUVEC cells treated with indicated doses of deguelin for 3 days was analyzed by MTT assay. Bars, means±SD of a representative experiment done in triplicate from five independently performed experiments for each cell line.
# Inhibition of angiogenesis by deguelin was also evaluated using the Matrigel™ plug assay, an established in vivo angiogenesis model, using nude mice. […]
# Sk-mes = test: MTT assay, growth inhibition by deguelin or deguelin derivatives; assay type: cell-based; conditions: 3 days
# H322 = test: as above; assay type: cell-based; conditions: H322, 3 days
# H460 = test: as above; assay type: cell-based; conditions: H460, 3 days
# [2] = test system: bFGF-induced angiogenesis; test: Matrigel plug assay, bFGF-induced angiogenesis; assay type: in vivo, nude mice; conditions: 5 nmole deguelin plus bFGF, seven days
# Description: Inhibition of angiogenesis by deguelin was also evaluated using the Matrigel™ plug assay, an established in vivo angiogenesis model, using nude mice. Matrigel alone was used as a negative control, 100 ng/ml bFGF and 72 units/ml heparin in a vehicle of 0.1% BSA/PBS (bFGF) for a positive control, 5 nmole deguelin alone, and 5 nmole deguelin plus bFGF were included. Seven days after injection, mice were sacrificed. […] 1, 1 and 10 μM concentrations of deguelin in these cells. All of these findings indicated the anti-angiogenic activity of deguelin.
# [3] = test system: breast, prostate, head & neck and ovarian cancer cells; test: MTT assay, growth inhibition in other cancer cells; assay type: cell-based; conditions: 10^−9 M to 10^−6 M, 3 or 5 days; more effective at 10^−7 M to 10^−6 M
# Description: It was next determined whether deguelin can inhibit cell growth in cancer cells other than lung cancer cells. Cancer cells, such as breast, prostate, head & neck and ovarian cells were treated with 10^−6 M, 10^−7 M, 10^−8 M, or 10^−9 M deguelin for 3 or 5 days, and cell growth inhibition analyzed by MTT assay.
compound,measurement,setting,value
COc1cc2c(cc1OC)[C@@H]1C(=O)c3ccc4c(c3O[C@@H]1CO2)C=CC(C)(C)O4 [Deguelin],Av. % con,H226Br; deguelin 10^−6M,0.82 % con
same,"MTT value, mean of replicates (unheaded line)",H226Br; deguelin 10^−6M,0.266
same,"MTT value, replicate (unheaded line)",H226Br; deguelin 10^−6M,0.264 (2×) and 0.271
same,Av. % con,H226Br; deguelin 10^−8M,0.85 % con
same,"MTT value, mean of replicates (unheaded line)",H226Br; deguelin 10^−8M,0.276
same,"MTT value, replicate (unheaded line)",H226Br; deguelin 10^−8M,0.296 and 0.273 and 0.259
same,Av. % con,H226Br; deguelin 10^−10M,1.02 % con
same,"MTT value, mean of replicates (unheaded line)",H226Br; deguelin 10^−10M,0.330
same,"MTT value, replicate (unheaded line)",H226Br; deguelin 10^−10M,0.321 and 0.329 and 0.34
same,Av. % con,H226Br; deguelin 10^−12M,0.96 % con
same,"MTT value, mean of replicates (unheaded line)",H226Br; deguelin 10^−12M,0.310
same,"MTT value, replicate (unheaded line)",H226Br; deguelin 10^−12M,0.3 and 0.318 and 0.313
same,Avg. % con,[1]; deguelin 10^−6M,0.82 % con
same,"MTT value, mean of replicates (unheaded line)",[1]; deguelin 10^−6M,0.304
same,"MTT value, replicate (unheaded line)",[1]; deguelin 10^−6M,0.306 (2×) and 0.299 and 0.305
same,Avg. % con,[1]; deguelin 10^−8M,0.78 % con
same,"MTT value, mean of replicates (unheaded line)",[1]; deguelin 10^−8M,0.2908
same,"MTT value, replicate (unheaded line)",[1]; deguelin 10^−8M,0.288 and 0.291 and 0.283 and 0.301
same,Avg. % con,[1]; deguelin 10^−10M,0.90 % con
same,"MTT value, mean of replicates (unheaded line)",[1]; deguelin 10^−10M,0.3348
same,"MTT value, replicate (unheaded line)",[1]; deguelin 10^−10M,0.337 and 0.327 and 0.343 and 0.332
same,Avg. % con,[1]; deguelin 10^−12M,1.01 % con
same,"MTT value, mean of replicates (unheaded line)",[1]; deguelin 10^−12M,0.3768
same,"MTT value, replicate (unheaded line)",[1]; deguelin 10^−12M,0.392 and 0.386 and 0.367 and 0.362
same,Avg. % con,H661; deguelin 10^−6M,0.5756 % con
same,"MTT value, mean of replicates (unheaded line)",H661; deguelin 10^−6M,0.0597
same,"MTT value, replicate (unheaded line)",H661; deguelin 10^−6M,0.059 and 0.055 and 0.065
same,Avg. % con,H661; deguelin 10^−8M,0.60 % con
same,"MTT value, mean of replicates (unheaded line)",H661; deguelin 10^−8M,0.063
same,"MTT value, replicate (unheaded line)",H661; deguelin 10^−8M,0.062 and 0.056 and 0.07
same,Avg. % con,H661; deguelin 10^−10M,0.80 % con
same,"MTT value, mean of replicates (unheaded line)",H661; deguelin 10^−10M,0.083
same,"MTT value, replicate (unheaded line)",H661; deguelin 10^−10M,0.087 and 0.093 and 0.07
same,Avg. % con,H661; deguelin 10^−12M,0.86 % con
same,"MTT value, mean of replicates (unheaded line)",H661; deguelin 10^−12M,0.089
same,"MTT value, replicate (unheaded line)",H661; deguelin 10^−12M,0.09 and 0.084 and 0.094
same,proliferation of HUVEC cells,HUVEC cells,Inhibition of cell proliferation was observed
same,Avg. % con,Sk-mes; deguelin 10^−6M,0.45 % con
same,"MTT value, mean of replicates (unheaded line)",Sk-mes; deguelin 10^−6M,0.121
same,"MTT value, replicate (unheaded line)",Sk-mes; deguelin 10^−6M,0.107 and 0.135 and 0.122
same,Avg. % con,Sk-mes; deguelin 10^−8M,0.79 % con
same,"MTT value, mean of replicates (unheaded line)",Sk-mes; deguelin 10^−8M,0.211
same,"MTT value, replicate (unheaded line)",Sk-mes; deguelin 10^−8M,0.207 and 0.209 and 0.216
same,Avg. % con,Sk-mes; deguelin 10^−10M,0.92 % con
same,"MTT value, mean of replicates (unheaded line)",Sk-mes; deguelin 10^−10M,0.247
same,"MTT value, replicate (unheaded line)",Sk-mes; deguelin 10^−10M,0.243 and 0.223 and 0.274
same,Avg. % con,Sk-mes; deguelin 10^−12M,0.96 % con
same,"MTT value, mean of replicates (unheaded line)",Sk-mes; deguelin 10^−12M,0.258
same,"MTT value, replicate (unheaded line)",Sk-mes; deguelin 10^−12M,0.253 and 0.258 and 0.264
same,Avg. % con,H322; deguelin 10^−6M,0.49 % con
same,"MTT value, mean of replicates (unheaded line)",H322; deguelin 10^−6M,0.094
same,"MTT value, replicate (unheaded line)",H322; deguelin 10^−6M,0.096 and 0.087 and 0.1
same,Avg. % con,H322; deguelin 10^−8M,0.89 % con
same,"MTT value, mean of replicates (unheaded line)",H322; deguelin 10^−8M,0.173
same,"MTT value, replicate (unheaded line)",H322; deguelin 10^−8M,0.172 (2×) and 0.174
same,Avg. % con,H322; deguelin 10^−10M,0.84 % con
same,"MTT value, mean of replicates (unheaded line)",H322; deguelin 10^−10M,0.163
same,"MTT value, replicate (unheaded line)",H322; deguelin 10^−10M,0.153 and 0.16 and 0.177
same,Avg. % con,H322; deguelin 10^−12M,0.86 % con
same,"MTT value, mean of replicates (unheaded line)",H322; deguelin 10^−12M,0.166
same,"MTT value, replicate (unheaded line)",H322; deguelin 10^−12M,0.168 and 0.16 and 0.17
same,Avg. % con,H460; deguelin 10^−6M,0.17 % con
same,"MTT value, mean of replicates (unheaded line)",H460; deguelin 10^−6M,0.129
same,"MTT value, replicate (unheaded line)",H460; deguelin 10^−6M,0.115 and 0.141 and 0.131
same,Avg. % con,H460; deguelin 10^−8M,0.86 % con
same,"MTT value, mean of replicates (unheaded line)",H460; deguelin 10^−8M,0.635
same,"MTT value, replicate (unheaded line)",H460; deguelin 10^−8M,0.632 and 0.652 and 0.62
same,Avg. % con,H460; deguelin 10^−10M,1.03 % con
same,"MTT value, mean of replicates (unheaded line)",H460; deguelin 10^−10M,0.762
same,"MTT value, replicate (unheaded line)",H460; deguelin 10^−10M,0.783 and 0.761 and 0.743
same,Avg. % con,H460; deguelin 10^−12M,1.06 % con
same,"MTT value, mean of replicates (unheaded line)",H460; deguelin 10^−12M,0.788
same,"MTT value, replicate (unheaded line)",H460; deguelin 10^−12M,0.797 and 0.75 and 0.816
same,bFGF-induced angiogenesis in Matrigel plugs,[2],markedly inhibit
same,"cell proliferation in breast, prostate, head & neck and ovarian cancer cells",[3],inhibit cell proliferation in these cells in a dose dependent manner
